According to PubChem BioAssay AID248 (DTP/NCI, 2004):
Where “and” joins values, the source holds several entries; their conditions need not be identical. Equal values may be shown once. Inconclusive results and toxic doses are left out. No stated cut-off is given here; in the data, active means T/C of 150% or more; inactive means T/C below 125%.

System: L1210 leukemia ip in BDF1 mice, survival T/C
Assay: NCI In Vivo Anticancer Drug Screen. Data for tumor model L1210 Leukemia (intraperitoneal) in B6D2F1 (BDF1) mice
Settings: endpoint: mean survival time, higher = longer survival
Outline: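 Tumor was transplanted into mice, which were then dosed with test compound or vehicle alone. Survival was recorded for each group, and the treated figure was expressed relative to the control figure.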

[1] = dose: 100.0 mg/kg/injection, schedule: Q04DX003 (ip), vehicle: water
[2] = dose: 200.0 mg/kg/injection, schedule: Q04DX003 (ip), vehicle: water
[3] = dose: 400.0 mg/kg/injection, schedule: Q04DX003 (ip), vehicle: water
[4] = dose: 100.0 mg/kg/injection, schedule: Q04DX003 (ip), vehicle: Klucel (hydroxypropylcellulose) (HPC)
[5] = dose: 200.0 mg/kg/injection, schedule: Q04DX003 (ip), vehicle: Klucel (hydroxypropylcellulose) (HPC)
[6] = dose: 100.0 mg/kg/injection, schedule: Q01DX001 (ip), vehicle: saline
[7] = dose: 100.0 mg/kg/injection, schedule: Q01DX009 (ip), vehicle: saline
[8] = dose: 100.0 mg/kg/injection, schedule: Q04DX003 (ip), vehicle: saline
[9] = dose: 200.0 mg/kg/injection, schedule: Q01DX009 (ip), vehicle: saline
[10] = dose: 100.0 mg/kg/injection, schedule: Q01DX009 (ip), vehicle: Klucel (hydroxypropylcellulose) (HPC)
[11] = dose: 200.0 mg/kg/injection, schedule: Q01DX009 (ip), vehicle: Klucel (hydroxypropylcellulose) (HPC)
[12] = dose: 400.0 mg/kg/injection, schedule: Q01DX009 (ip), vehicle: Klucel (hydroxypropylcellulose) (HPC)
[13] = dose: 100.0 mg/kg/injection, schedule: Q01DX009 (ip), vehicle: saline with Tween-80
[14] = dose: 200.0 mg/kg/injection, schedule: Q01DX001 (ip), vehicle: saline
[15] = dose: 400.0 mg/kg/injection, schedule: Q01DX001 (ip), vehicle: saline
[16] = dose: 100.0 mg/kg/injection, schedule: Q04DX003 (ip), vehicle: saline with Tween-80
[17] = dose: 200.0 mg/kg/injection, schedule: Q04DX003 (ip), vehicle: saline with Tween-80
[18] = dose: 100.0 mg/kg/injection, schedule: Q04DX002 (ip), vehicle: saline with Tween-80
[19] = dose: 200.0 mg/kg/injection, schedule: Q04DX002 (ip), vehicle: saline with Tween-80
[20] = dose: 400.0 mg/kg/injection, schedule: Q04DX002 (ip), vehicle: saline with Tween-80

Measured: T/C

CN(C(=O)c1ccncc1)c1ccccc1
inactive: dose: 50.0 mg/kg/injection, schedule: Q01DX009 (ip), vehicle: carboxymethylcellulose (CMC) 93 % of control and 98 % of control | dose: 50.0 mg/kg/injection, schedule: Q04DX002 (ip), vehicle: carboxymethylcellulose (CMC) 95 % of control and 100 % of control | dose: 50.0 mg/kg/injection, schedule: Q04DX003 (ip), vehicle: carboxymethylcellulose (CMC) 95 % of control | dose: 100.0 mg/kg/injection, schedule: Q01DX009 (ip), vehicle: carboxymethylcellulose (CMC) 98 % of control and 90 % of control | dose: 100.0 mg/kg/injection, schedule: Q04DX002 (ip), vehicle: carboxymethylcellulose (CMC) 100 % of control (2×) and 106 % of control | dose: 100.0 mg/kg/injection, schedule: Q04DX003 (ip), vehicle: carboxymethylcellulose (CMC) 97 % of control | dose: 200.0 mg/kg/injection, schedule: Q01DX009 (ip), vehicle: carboxymethylcellulose (CMC) 90 % of control and 91 % of control | dose: 200.0 mg/kg/injection, schedule: Q04DX002 (ip), vehicle: carboxymethylcellulose (CMC) 97 % of control (2×) and 98 % of control | dose: 200.0 mg/kg/injection, schedule: Q04DX003 (ip), vehicle: carboxymethylcellulose (CMC) 98 % of control | dose: 400.0 mg/kg/injection, schedule: Q04DX002 (ip), vehicle: carboxymethylcellulose (CMC) 93 % of control

COc1cc(/C=C/C(=O)c2ccc3c(c2)OCO3)ccc1OCc1ccccc1
inactive: [1] 93 % of control | [2] 91 % of control | [3] 93 % of control

CCOC(=O)C(OCc1ccccc1)(C(=O)N1CCCCC1=O)C(C)C (configuration not stated)
inactive: dose: 25.0 mg/kg/injection, schedule: Q04DX003 (ip), vehicle: Klucel (hydroxypropylcellulose) (HPC) 119 % of control | dose: 50.0 mg/kg/injection, schedule: Q04DX003 (ip), vehicle: Klucel (hydroxypropylcellulose) (HPC) 97 % of control | [4] 113 % of control | [5] 88 % of control

F[Si](F)(c1ccccc1)c1ccccc1
inactive: dose: 75.0 mg/kg/injection, schedule: Q01DX001 (ip), vehicle: saline 105 % of control | dose: 150.0 mg/kg/injection, schedule: Q01DX001 (ip), vehicle: saline 100 % of control

CCCCCc1cccc(C)n1
inactive: [6] 96 % of control

Cc1ccc2c(ccc3nnc(C)n32)c1
inactive: dose: 50.0 mg/kg/injection, schedule: Q01DX001 (ip), vehicle: saline 109 % of control | [6] 103 % of control

CCc1c[n+]([O-])c(C)cc1[N+](=O)[O-]
inactive: [7] 108 % of control | [8] 101 % of control | [9] 101 % of control | dose: 200.0 mg/kg/injection, schedule: Q04DX003 (ip), vehicle: saline 122 % of control | dose: 400.0 mg/kg/injection, schedule: Q04DX003 (ip), vehicle: saline 95 % of control

CCc1ccc(NS(=O)(=O)c2ccc(OC)cc2)cc1
inactive: [10] 102 % of control | [11] 100 % of control | [12] 109 % of control

CCCCCCCCCCCCCCCCCC(=O)N/N=C/c1cccc([N+](=O)[O-])c1
inactive: [10] 94 % of control | [11] 96 % of control | [12] 88 % of control

C=CCC(C(C)=O)C(=O)OCC (configuration not stated)
inactive: [10] 100 % of control | [4] 93 % of control | [11] 96 % of control | [5] 104 % of control | [12] 96 % of control | dose: 400.0 mg/kg/injection, schedule: Q04DX003 (ip), vehicle: Klucel (hydroxypropylcellulose) (HPC) 97 % of control

COc1ccc(C)cc1NC(=O)Nc1ccco1
inactive: [13] 97 % of control | dose: 200.0 mg/kg/injection, schedule: Q01DX009 (ip), vehicle: saline with Tween-80 92 % of control | dose: 400.0 mg/kg/injection, schedule: Q01DX009 (ip), vehicle: saline with Tween-80 90 % of control

CCOC(=O)C(C(=O)OCC)C(CC(=O)c1ccccc1)c1ccccc1 (configuration not stated)
inactive: [10] 98 % of control | [11] 93 % of control | [12] 94 % of control

O=C1c2ccccc2C(=O)N1c1cc(O)cc(O)c1
inactive: dose: 100.0 mg/kg/injection, schedule: Q01DX009 (ip), vehicle: water 95 % of control | [1] 96 % of control | dose: 200.0 mg/kg/injection, schedule: Q01DX009 (ip), vehicle: water 95 % of control | [2] 94 % of control | dose: 400.0 mg/kg/injection, schedule: Q01DX009 (ip), vehicle: water 101 % of control | [3] 96 % of control

CCCCCCCCCCCC(=O)Nc1cc(C(C)C)ccc1C
inactive: [6] 87 % of control | [8] 88 % of control | [14] 86 % of control | [15] 91 % of control

C(#CCN1CCCC1)CCCN1CCCC1
inactive: dose: 25.0 mg/kg/injection, schedule: Q01DX009 (ip), vehicle: saline with Tween-80 98 % of control | dose: 25.0 mg/kg/injection, schedule: Q04DX003 (ip), vehicle: saline with Tween-80 97 % of control | dose: 50.0 mg/kg/injection, schedule: Q01DX009 (ip), vehicle: saline with Tween-80 102 % of control | dose: 50.0 mg/kg/injection, schedule: Q04DX003 (ip), vehicle: saline with Tween-80 97 % of control | [13] 95 % of control | [16] 93 % of control and 98 % of control

CCC(CO)NC(=O)/C=C/c1ccccc1 (configuration not stated)
inactive: dose: 100.0 mg/kg/injection, schedule: Q01DX001 (ip), vehicle: saline with Tween-80 101 % of control | [16] 97 % of control | dose: 200.0 mg/kg/injection, schedule: Q01DX001 (ip), vehicle: saline with Tween-80 94 % of control | [17] 97 % of control | dose: 400.0 mg/kg/injection, schedule: Q01DX001 (ip), vehicle: saline with Tween-80 100 % of control | dose: 400.0 mg/kg/injection, schedule: Q04DX003 (ip), vehicle: saline with Tween-80 91 % of control

COC(=O)/C=C(\C)Nc1cccc([N+](=O)[O-])c1
inactive: dose: 100.0 mg/kg/injection, schedule: Q01DX001 (ip), vehicle: other 94 % of control

COc1c(O)cc2c(c1OC)-c1ccc(OC)c(=O)cc1C(NC=O)CC2 (configuration not stated)
inactive: [16] 116 % of control | [17] 93 % of control

O=C(O)C/C1=C/CCCCCC1
inactive: [6] 96 % of control | [7] 96 % of control | [14] 92 % of control | [9] 96 % of control | [15] 101 % of control | dose: 400.0 mg/kg/injection, schedule: Q01DX009 (ip), vehicle: saline 93 % of control

NS(=O)(=O)c1ccc(Cl)c([N+](=O)[O-])c1
inactive: [18] 98 % of control | [19] 91 % of control | [20] 91 % of control

c1ccc2c(c1)CC1Sc3ccccc3N=C21 (configuration not stated)
inactive: [16] 103 % of control | [17] 95 % of control

Cc1cc(C)c(Nc2n[nH]c(=S)s2)cc1C
inactive: [18] 87 % of control | [19] 92 % of control | [20] 94 % of control

CC(C)NC(=O)NC(C)C
inactive: dose: 100.0 mg/kg/injection, schedule: Q01DX001 (ip), vehicle: Klucel (hydroxypropylcellulose) (HPC) 100 % of control | dose: 200.0 mg/kg/injection, schedule: Q01DX001 (ip), vehicle: Klucel (hydroxypropylcellulose) (HPC) 96 % of control | dose: 400.0 mg/kg/injection, schedule: Q01DX001 (ip), vehicle: Klucel (hydroxypropylcellulose) (HPC) 94 % of control
